Assays:
[1] = Influencing factor stability study; conditions: for physical and chemical stability (conclusion): influencing factors
[2] = Hygroscopicity study (DVS); type: physicochemical; conditions: 25° C.; for Hygroscopicity grade: 0% RH-80.0% RH; for Hygroscopicity 0% RH-80.0% RH / Hygroscopicity 0.0% RH-95.0% RH: DVS
Method: DVS refers to dynamic vapor sorption: The measurement was conducted on SMS DVS Advantage; at 25° C., the humidity was changed as follows: 50%-95%-0%-95%-50%, in steps of 10% (5% for the last step) (specific humidity ranges are shown in corresponding patterns, and those listed here were used in most cases); the criterion was dm/dt≤0.002%.
The measurement was conducted with a Surface Measurement Systems intrinsic at 25° C., starting from 50% humidity in humidity range of 0%-95%, in steps of 10%; the criterion was dM/dT≤0.002% and TMAX of 360 min in two cycles.

[3] = Long-term/accelerated stability; type: physicochemical; conditions: for Crystal form: up to 3 months; for physical and chemical stability (conclusion): long-term/accelerated study for 3 months

Structure (SMILES): O=S(=O)(O)O.[2H]C1([2H])Oc2cc3c(cc2O1)[C@@H](c1ccc(NC2CN(CCCF)C2)cn1)N(CC(F)(F)CO)[C@H](C)C3 [Crystal form A of sulfate]
- Crystal form ([1]; 40° C., 1 month): Crystal form A
- Purity (%) ([1]; 40° C., 1 month): 98.0%
- Crystal form ([1]; 40° C., 5 days): Crystal form A
- Purity (%) ([1]; 40° C., 5 days): 98.8%
- Crystal form ([1]; 40° C., 10 days): Crystal form A
- Purity (%) ([1]; 40° C., 10 days): 98.7%
- Crystal form ([1]; 60° C., 1 month): Crystal form A
- Purity (%) ([1]; 60° C., 1 month): 97.3%
- Crystal form ([1]; 60° C., 5 days): Crystal form A
- Purity (%) ([1]; 60° C., 5 days): 98.7%
- Crystal form ([1]; 60° C., 10 days): Crystal form A
- Purity (%) ([1]; 60° C., 10 days): 98.6%
- behaviour under the high-humidity conditions (conclusion) ([1]; 75% RH and 92.5% RH, 30 days): deliquesced
- Crystal form ([1]; 75% RH, 1 month): Deliquescence
- Purity (%) ([1]; 75% RH, 1 month): 94.8%
- Crystal form ([1]; 75% RH, 5 days): Deliquescence
- Purity (%) ([1]; 75% RH, 5 days): 97.8%
- Crystal form ([1]; 75% RH, 10 days): Deliquescence
- Purity (%) ([1]; 75% RH, 10 days): 96.6%
- Crystal form ([1]; 92.5% RH, 1 month): Deliquescence
- Purity (%) ([1]; 92.5% RH, 1 month): 95.1%
- Crystal form ([1]; 92.5% RH, 5 days): Deliquescence
- Purity (%) ([1]; 92.5% RH, 5 days): 98.1%
- Crystal form ([1]; 92.5% RH, 10 days): Deliquescence
- Purity (%) ([1]; 92.5% RH, 10 days): 97.3%
- Crystal form ([1]; 4500 Lux, 1 month): Crystal form A
- Purity (%) ([1]; 4500 Lux, 1 month): 92.9%
- Crystal form ([1]; 4500 Lux, 5 days): Crystal form A
- Purity (%) ([1]; 4500 Lux, 5 days): 97.4%
- Crystal form ([1]; 4500 Lux, 10 days): Crystal form A
- Purity (%) ([1]; 4500 Lux, 10 days): 96.0%
- Crystal form ([1]; Initial, 0 days): Crystal form A
- Purity (%) ([1]; Initial, 0 days): 98.9%
- physical and chemical stability (conclusion) ([1]; 30 days): good physical and chemical stability under other conditions except the lighting condition
- Hygroscopicity grade [2]: hygroscopic
- Crystal form after DVS [2]: Deliquescence
- Hygroscopicity 0% RH-80.0% RH [2]: 13.3%
- Hygroscopicity 0.0% RH-95.0% RH [2]: 44.1%
- Crystal form after DVS ([2]; listed as crystal form A): deliquesced
- Purity (%) 1 month ([3]; 25° C./60% RH): 98.9%
- Purity (%) 2 months ([3]; 25° C./60% RH): 98.7%
- Purity (%) 3 months ([3]; 25° C./60% RH): 98.8%
- Purity (%) 7 days ([3]; 25° C./60% RH): 99.0%
- Purity (%) 14 days ([3]; 25° C./60% RH): 98.9%
- Purity (%) Initial ([3]; 25° C./60% RH): 98.9%
- Crystal form ([3]; 25° C./60% RH): Unchanged
- Purity (%) 1 month ([3]; 40° C./75% RH): 98.7%
- Purity (%) 2 months ([3]; 40° C./75% RH): 98.2%
- Purity (%) 3 months ([3]; 40° C./75% RH): 98.1%
- Purity (%) 7 days ([3]; 40° C./75% RH): 99.2%
- Purity (%) 14 days ([3]; 40° C./75% RH): 98.9%
- Purity (%) Initial ([3]; 40° C./75% RH): 98.9%
- Crystal form ([3]; 40° C./75% RH): Unchanged
- physical and chemical stability (conclusion) [3]: good physical and chemical stability

Structure (SMILES): O=P(O)(O)O.O=P(O)(O)O.O=P(O)(O)O.[2H]C1([2H])Oc2cc3c(cc2O1)[C@@H](c1ccc(NC2CN(CCCF)C2)cn1)N(CC(F)(F)CO)[C@H](C)C3 [Crystal form I of phosphate]
- Crystal form ([1]; 40° C., 1 month): Crystal form I
- Purity (%) ([1]; 40° C., 1 month): 99.1%
- Crystal form ([1]; 40° C., 5 days): Crystal form I
- Purity (%) ([1]; 40° C., 5 days): 99.3%
- Crystal form ([1]; 40° C., 10 days): Crystal form I
- Purity (%) ([1]; 40° C., 10 days): 99.1%
- Crystal form ([1]; 60° C., 1 month): Crystal form I
- Purity (%) ([1]; 60° C., 1 month): 98.8%
- Crystal form ([1]; 60° C., 5 days): Crystal form I
- Purity (%) ([1]; 60° C., 5 days): 99.1%
- Crystal form ([1]; 60° C., 10 days): Crystal form I
- Purity (%) ([1]; 60° C., 10 days): 99.1%
- Crystal form ([1]; 75% RH, 1 month): Crystal form I
- Purity (%) ([1]; 75% RH, 1 month): 99.4%
- Crystal form ([1]; 75% RH, 5 days): Crystal form I
- Purity (%) ([1]; 75% RH, 5 days): 99.3%
- Crystal form ([1]; 75% RH, 10 days): Crystal form I
- Purity (%) ([1]; 75% RH, 10 days): 99.4%
- Crystal form ([1]; 92.5% RH, 1 month): Crystal form I
- Purity (%) ([1]; 92.5% RH, 1 month): 99.3%
- Crystal form ([1]; 92.5% RH, 5 days): Crystal form I
- Purity (%) ([1]; 92.5% RH, 5 days): 99.3%
- Crystal form ([1]; 92.5% RH, 10 days): Crystal form I
- Purity (%) ([1]; 92.5% RH, 10 days): 99.3%
- Crystal form ([1]; 4500 Lux, 1 month): Crystal form I
- Purity (%) ([1]; 4500 Lux, 1 month): 98.4%
- Crystal form ([1]; 4500 Lux, 5 days): Crystal form I
- Purity (%) ([1]; 4500 Lux, 5 days): 98.9%
- Crystal form ([1]; 4500 Lux, 10 days): Crystal form I
- Purity (%) ([1]; 4500 Lux, 10 days): 98.8%
- Crystal form ([1]; Initial, 0 days): Crystal form I
- Purity (%) ([1]; Initial, 0 days): 99.4%
- physical and chemical stability (conclusion) ([1]; 30 days): good physical and chemical stability
- Hygroscopicity grade [2]: slightly
- Crystal form after DVS [2]: Did not change
- Hygroscopicity 0% RH-80.0% RH [2]: 1.2%
- Hygroscopicity 0.0% RH-95.0% RH [2]: 7.1%
- Crystal form after DVS ([2]; listed as crystal form I): did not change
- Purity (%) 1 month ([3]; 25° C./60% RH): 99.3%
- Purity (%) 2 months ([3]; 25° C./60% RH): 99.3%
- Purity (%) 3 months ([3]; 25° C./60% RH): 99.2%
- Purity (%) 7 days ([3]; 25° C./60% RH): 99.4%
- Purity (%) 14 days ([3]; 25° C./60% RH): 99.5%
- Purity (%) Initial ([3]; 25° C./60% RH): 99.4%
- Crystal form ([3]; 25° C./60% RH): Unchanged
- Purity (%) 1 month ([3]; 40° C./75% RH): 99.3%
- Purity (%) 2 months ([3]; 40° C./75% RH): 99.2%
- Purity (%) 3 months ([3]; 40° C./75% RH): 99.0%
- Purity (%) 7 days ([3]; 40° C./75% RH): 99.5%
- Purity (%) 14 days ([3]; 40° C./75% RH): 99.5%
- Purity (%) Initial ([3]; 40° C./75% RH): 99.4%
- Crystal form ([3]; 40° C./75% RH): Unchanged
- physical and chemical stability (conclusion) [3]: good physical and chemical stability
